Test: Storage stability of dispersions of solid powderous agents in vehicles
Format: physicochemical
Settings: as little as
Source text: Depending on the chemical and physical nature of the solid and its particle size, a minimum amount of the solid is required to form the stable suspension of the invention. For a given substance of given physical and chemical nature as well of particle size, this minimum amount can be easily determined by experimentation, which is within the reach of a person skilled in the art. With some substances, such as hydrocortisone, stable suspensions are obtained by incorporating as little as 3% by weight of the substance into the fluid carrier. A preferred average particle size (with 50% or more of the particles being below average) is one of less than 550 μm or 250 μm, in particular of less than 100 μm or 20 μm, most preferred of less than 5 μm or 2 μm. The stabilizing effect of the particulate solid of the invention can also be obtained by a mixture of particulate substances, such as a particulate pharmacologically or cosmetically active agent, for instance hydrocortisone, and a particulate pharmaceutically or cosmetically acceptable excipient, such as microcrystalline cellulose. The powderous agents used are practically insoluble in the vehicles.

amount of substance incorporated into the fluid carrier at which stable suspensions are obtained: 3 % by weight
SMILES: C[C@]12CCC(=O)C=C1CC[C@@H]1[C@@H]2[C@@H](O)C[C@@]2(C)[C@H]1CC[C@]2(O)C(=O)CO [hydrocortisone, Hydrocortisone]

— US20140044779A1, “Liquid Carrier for Oral Delivery of a Pharmacologically Active Agent” (LIPIDOR AB, priority 2011, published 2014)
